Reference: paper PMC4490784, “Compensatory induction of MYC expression by sustained CDK9 inhibition via a BRD4-dependent mechanism” (eLife, 2015)

Legend:
Test in all cases: KINOMEscan binding assay
DLK = biological target: T1, DLK (Homo sapiens, UniProt Q12852)
T1 construct: purchased DiscoveRx KINOMEscan
Method in brief: (§1)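 We profiled i-CDK9 by active-site-directed competitive binding, testing 1 µM and 10 µM against over 400 kinases.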

CLK1 = biological target: T2, CLK1 (Homo sapiens, UniProt P49759); conditions: read-out: % Retention on Solid Support
T2 construct: purchased DiscoveRx KINOMEscan
Method in brief: as §1

ICK = biological target: T3, ICK (Homo sapiens, UniProt Q9UPZ9); conditions: read-out: % Retention on Solid Support
T3 construct: purchased DiscoveRx KINOMEscan
Method in brief: as §1

MST1R = biological target: T4, MST1R (Homo sapiens, UniProt Q04912); conditions: read-out: % Retention on Solid Support
T4 construct: purchased DiscoveRx KINOMEscan
Method in brief: as §1

TGFBR1 = biological target: T5, TGFBR1 (Homo sapiens, UniProt P36897); conditions: read-out: % Retention on Solid Support
T5 construct: purchased DiscoveRx KINOMEscan
Method in brief: as §1

[1] = biological target: T6, ABL1(H396P)-nonphosphorylated (Homo sapiens, UniProt P00519, H396P); conditions: read-out: % Retention on Solid Support
T6 construct: purchased DiscoveRx KINOMEscan
Method in brief: as §1

MINK = biological target: T7, MINK (Homo sapiens, UniProt Q8N4C8); conditions: read-out: % Retention on Solid Support
T7 construct: purchased DiscoveRx KINOMEscan
Method in brief: as §1

CHEK1 = biological target: T8, CHEK1 (Homo sapiens, UniProt O14757)
T8 construct: purchased DiscoveRx KINOMEscan
Method in brief: as §1

SNRK = biological target: T9, SNRK (Homo sapiens, UniProt Q9NRH2); conditions: 1 µM i-CDK9; read-out: % Retention on Solid Support
T9 construct: purchased DiscoveRx KINOMEscan
Method in brief: as §1

YANK3 = biological target: T10, YANK3 (Homo sapiens, UniProt Q86UX6); conditions: read-out: % Retention on Solid Support
T10 construct: purchased DiscoveRx KINOMEscan
Method in brief: as §1

EPHB6 = biological target: T11, EPHB6 (Homo sapiens, UniProt O15197); conditions: read-out: % Retention on Solid Support
T11 construct: purchased DiscoveRx KINOMEscan
Method in brief: as §1

BMX = biological target: T12, BMX (Homo sapiens, UniProt P51813); conditions: read-out: % Retention on Solid Support
T12 construct: purchased DiscoveRx KINOMEscan
Method in brief: as §1

YSK4 = biological target: T13, YSK4 (Homo sapiens, UniProt Q56UN5); conditions: read-out: % Retention on Solid Support
T13 construct: purchased DiscoveRx KINOMEscan
Method in brief: as §1

CDK3 = biological target: T14, CDK3 (Homo sapiens, UniProt Q00526)
T14 construct: purchased DiscoveRx KINOMEscan
Method in brief: as §1

ZAP70 = biological target: T15, ZAP70 (Homo sapiens, UniProt P43403); conditions: read-out: % Retention on Solid Support
T15 construct: purchased DiscoveRx KINOMEscan
T15 sequence (P43403 1-619): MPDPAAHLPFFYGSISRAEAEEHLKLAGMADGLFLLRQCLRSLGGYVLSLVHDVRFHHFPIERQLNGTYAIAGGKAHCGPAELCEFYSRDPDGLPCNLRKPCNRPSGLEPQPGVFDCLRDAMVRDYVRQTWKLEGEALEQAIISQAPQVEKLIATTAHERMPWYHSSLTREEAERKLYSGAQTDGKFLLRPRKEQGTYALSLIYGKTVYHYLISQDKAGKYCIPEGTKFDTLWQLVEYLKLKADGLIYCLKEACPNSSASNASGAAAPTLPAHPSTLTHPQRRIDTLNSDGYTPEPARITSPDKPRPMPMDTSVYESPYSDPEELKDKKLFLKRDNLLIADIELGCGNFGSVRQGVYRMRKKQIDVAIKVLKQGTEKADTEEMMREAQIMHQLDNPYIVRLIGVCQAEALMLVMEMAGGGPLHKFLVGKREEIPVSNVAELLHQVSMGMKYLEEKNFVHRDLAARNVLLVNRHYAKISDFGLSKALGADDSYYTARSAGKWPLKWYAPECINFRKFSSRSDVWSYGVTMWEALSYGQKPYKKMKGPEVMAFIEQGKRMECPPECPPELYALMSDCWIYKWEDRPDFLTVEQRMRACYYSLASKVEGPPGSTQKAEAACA
Method in brief: as §1

CSNK2A2 = biological target: T16, CSNK2A2 (Homo sapiens, UniProt P19784); conditions: read-out: % Retention on Solid Support
T16 construct: purchased DiscoveRx KINOMEscan
Method in brief: as §1

PLK1 = biological target: T17, PLK1 (Homo sapiens, UniProt P53350); conditions: read-out: % Retention on Solid Support
T17 construct: purchased DiscoveRx KINOMEscan
Method in brief: as §1

BMPR1B = biological target: T18, BMPR1B (Homo sapiens, UniProt O00238); conditions: read-out: % Retention on Solid Support
T18 construct: purchased DiscoveRx KINOMEscan
Method in brief: as §1

NEK7 = biological target: T19, NEK7 (Homo sapiens, UniProt Q8TDX7); conditions: read-out: % Retention on Solid Support
T19 construct: purchased DiscoveRx KINOMEscan
Method in brief: as §1

AXL = biological target: T20, AXL (Homo sapiens, UniProt P30530); conditions: read-out: % Retention on Solid Support
T20 construct: purchased DiscoveRx KINOMEscan
Method in brief: as §1

MUSK = biological target: T21, MUSK (Homo sapiens, UniProt O15146); conditions: read-out: % Retention on Solid Support
T21 construct: purchased DiscoveRx KINOMEscan
Method in brief: as §1

PFPK5(P.falciparum) = biological target: T22, PFPK5(P.falciparum) (Plasmodium falciparum, UniProt P61075); conditions: 1 µM i-CDK9; read-out: % Retention on Solid Support
T22 construct: purchased DiscoveRx KINOMEscan
Method in brief: as §1

VEGFR2 = biological target: T23, VEGFR2 (Homo sapiens, UniProt P35968); conditions: read-out: % Retention on Solid Support
T23 construct: purchased DiscoveRx KINOMEscan
Method in brief: as §1

T13 sequence (Q56UN5 whole entry): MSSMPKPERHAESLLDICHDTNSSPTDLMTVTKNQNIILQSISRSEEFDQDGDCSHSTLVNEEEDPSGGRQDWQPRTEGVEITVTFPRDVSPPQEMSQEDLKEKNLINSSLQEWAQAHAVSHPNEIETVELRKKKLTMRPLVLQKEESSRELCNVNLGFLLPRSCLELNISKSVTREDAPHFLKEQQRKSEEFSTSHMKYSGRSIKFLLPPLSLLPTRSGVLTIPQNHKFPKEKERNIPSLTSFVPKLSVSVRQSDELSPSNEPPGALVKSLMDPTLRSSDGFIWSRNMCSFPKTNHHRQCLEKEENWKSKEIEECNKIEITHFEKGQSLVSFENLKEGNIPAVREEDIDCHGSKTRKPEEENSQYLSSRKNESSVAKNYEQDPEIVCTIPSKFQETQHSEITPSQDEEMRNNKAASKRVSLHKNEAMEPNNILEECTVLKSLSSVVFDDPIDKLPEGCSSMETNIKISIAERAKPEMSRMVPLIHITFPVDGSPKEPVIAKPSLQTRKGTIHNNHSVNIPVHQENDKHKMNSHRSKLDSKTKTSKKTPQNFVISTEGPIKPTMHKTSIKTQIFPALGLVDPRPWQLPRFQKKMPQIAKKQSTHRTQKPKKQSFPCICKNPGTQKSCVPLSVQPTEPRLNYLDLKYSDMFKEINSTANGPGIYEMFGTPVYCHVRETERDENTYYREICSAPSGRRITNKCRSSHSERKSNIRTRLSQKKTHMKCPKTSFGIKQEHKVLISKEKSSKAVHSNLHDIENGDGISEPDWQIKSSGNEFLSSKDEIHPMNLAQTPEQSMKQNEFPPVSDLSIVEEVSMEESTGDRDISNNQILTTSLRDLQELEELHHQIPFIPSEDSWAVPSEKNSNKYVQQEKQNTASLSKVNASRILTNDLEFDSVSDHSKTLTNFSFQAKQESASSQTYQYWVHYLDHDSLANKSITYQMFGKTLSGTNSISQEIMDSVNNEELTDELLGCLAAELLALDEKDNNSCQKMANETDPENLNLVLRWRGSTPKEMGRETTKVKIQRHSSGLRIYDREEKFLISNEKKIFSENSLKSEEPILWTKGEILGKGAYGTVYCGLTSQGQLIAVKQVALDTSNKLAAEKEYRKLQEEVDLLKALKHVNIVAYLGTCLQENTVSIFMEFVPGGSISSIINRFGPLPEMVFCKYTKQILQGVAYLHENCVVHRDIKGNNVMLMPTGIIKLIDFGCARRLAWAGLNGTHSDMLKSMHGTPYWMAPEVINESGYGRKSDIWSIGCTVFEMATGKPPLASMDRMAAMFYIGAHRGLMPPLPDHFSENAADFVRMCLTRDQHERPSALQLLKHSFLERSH
T7 sequence (Q8N4C8 whole entry): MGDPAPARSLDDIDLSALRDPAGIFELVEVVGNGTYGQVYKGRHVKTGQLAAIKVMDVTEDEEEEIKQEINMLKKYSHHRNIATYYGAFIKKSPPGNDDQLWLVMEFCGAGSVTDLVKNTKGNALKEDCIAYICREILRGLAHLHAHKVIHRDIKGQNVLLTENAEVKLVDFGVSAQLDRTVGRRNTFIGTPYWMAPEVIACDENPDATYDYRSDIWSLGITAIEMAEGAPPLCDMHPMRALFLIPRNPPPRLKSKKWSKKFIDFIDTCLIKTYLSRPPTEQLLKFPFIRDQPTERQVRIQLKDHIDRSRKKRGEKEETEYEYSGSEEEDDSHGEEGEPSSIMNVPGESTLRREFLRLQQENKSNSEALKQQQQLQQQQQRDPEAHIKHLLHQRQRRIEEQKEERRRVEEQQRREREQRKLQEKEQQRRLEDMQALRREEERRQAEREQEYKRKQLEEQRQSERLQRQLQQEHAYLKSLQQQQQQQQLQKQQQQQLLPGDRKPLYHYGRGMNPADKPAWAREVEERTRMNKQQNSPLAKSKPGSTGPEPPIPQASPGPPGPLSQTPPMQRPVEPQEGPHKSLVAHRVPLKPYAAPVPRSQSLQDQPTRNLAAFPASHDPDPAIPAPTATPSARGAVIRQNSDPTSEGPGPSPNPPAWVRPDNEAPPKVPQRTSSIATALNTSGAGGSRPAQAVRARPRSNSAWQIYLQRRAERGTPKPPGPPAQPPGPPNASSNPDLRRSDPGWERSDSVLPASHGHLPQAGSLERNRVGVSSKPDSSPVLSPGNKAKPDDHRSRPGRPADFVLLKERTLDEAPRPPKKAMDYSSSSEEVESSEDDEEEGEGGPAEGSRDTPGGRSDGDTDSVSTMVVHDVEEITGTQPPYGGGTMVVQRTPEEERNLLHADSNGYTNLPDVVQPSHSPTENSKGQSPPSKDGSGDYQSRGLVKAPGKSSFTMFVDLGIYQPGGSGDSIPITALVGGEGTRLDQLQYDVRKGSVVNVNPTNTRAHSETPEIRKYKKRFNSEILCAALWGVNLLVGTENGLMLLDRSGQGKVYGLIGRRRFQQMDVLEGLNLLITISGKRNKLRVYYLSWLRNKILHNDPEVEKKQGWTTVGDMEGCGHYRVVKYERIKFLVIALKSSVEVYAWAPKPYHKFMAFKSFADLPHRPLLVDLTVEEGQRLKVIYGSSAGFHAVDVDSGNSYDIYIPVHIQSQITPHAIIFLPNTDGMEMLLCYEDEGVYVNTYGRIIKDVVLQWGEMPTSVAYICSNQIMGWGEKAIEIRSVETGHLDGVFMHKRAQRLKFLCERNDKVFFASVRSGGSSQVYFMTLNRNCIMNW
T3 sequence (Q9UPZ9 whole entry): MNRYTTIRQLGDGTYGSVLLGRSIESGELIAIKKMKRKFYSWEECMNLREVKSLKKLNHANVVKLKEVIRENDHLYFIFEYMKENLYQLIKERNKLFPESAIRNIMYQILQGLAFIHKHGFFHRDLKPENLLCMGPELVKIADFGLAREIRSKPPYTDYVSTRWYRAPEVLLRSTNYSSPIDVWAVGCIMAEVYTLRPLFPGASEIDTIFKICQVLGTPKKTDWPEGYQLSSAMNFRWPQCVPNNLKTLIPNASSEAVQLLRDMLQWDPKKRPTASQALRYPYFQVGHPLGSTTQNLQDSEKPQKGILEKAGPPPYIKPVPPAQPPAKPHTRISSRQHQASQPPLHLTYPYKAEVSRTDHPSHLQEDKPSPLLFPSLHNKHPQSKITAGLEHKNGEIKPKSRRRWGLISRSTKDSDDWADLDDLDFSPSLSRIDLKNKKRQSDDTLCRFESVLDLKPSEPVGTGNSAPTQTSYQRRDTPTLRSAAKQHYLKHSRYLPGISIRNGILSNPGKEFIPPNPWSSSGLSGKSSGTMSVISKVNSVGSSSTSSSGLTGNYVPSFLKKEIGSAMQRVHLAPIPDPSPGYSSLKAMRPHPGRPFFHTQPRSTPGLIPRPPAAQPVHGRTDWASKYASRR
T11 sequence (O15197 32-1021): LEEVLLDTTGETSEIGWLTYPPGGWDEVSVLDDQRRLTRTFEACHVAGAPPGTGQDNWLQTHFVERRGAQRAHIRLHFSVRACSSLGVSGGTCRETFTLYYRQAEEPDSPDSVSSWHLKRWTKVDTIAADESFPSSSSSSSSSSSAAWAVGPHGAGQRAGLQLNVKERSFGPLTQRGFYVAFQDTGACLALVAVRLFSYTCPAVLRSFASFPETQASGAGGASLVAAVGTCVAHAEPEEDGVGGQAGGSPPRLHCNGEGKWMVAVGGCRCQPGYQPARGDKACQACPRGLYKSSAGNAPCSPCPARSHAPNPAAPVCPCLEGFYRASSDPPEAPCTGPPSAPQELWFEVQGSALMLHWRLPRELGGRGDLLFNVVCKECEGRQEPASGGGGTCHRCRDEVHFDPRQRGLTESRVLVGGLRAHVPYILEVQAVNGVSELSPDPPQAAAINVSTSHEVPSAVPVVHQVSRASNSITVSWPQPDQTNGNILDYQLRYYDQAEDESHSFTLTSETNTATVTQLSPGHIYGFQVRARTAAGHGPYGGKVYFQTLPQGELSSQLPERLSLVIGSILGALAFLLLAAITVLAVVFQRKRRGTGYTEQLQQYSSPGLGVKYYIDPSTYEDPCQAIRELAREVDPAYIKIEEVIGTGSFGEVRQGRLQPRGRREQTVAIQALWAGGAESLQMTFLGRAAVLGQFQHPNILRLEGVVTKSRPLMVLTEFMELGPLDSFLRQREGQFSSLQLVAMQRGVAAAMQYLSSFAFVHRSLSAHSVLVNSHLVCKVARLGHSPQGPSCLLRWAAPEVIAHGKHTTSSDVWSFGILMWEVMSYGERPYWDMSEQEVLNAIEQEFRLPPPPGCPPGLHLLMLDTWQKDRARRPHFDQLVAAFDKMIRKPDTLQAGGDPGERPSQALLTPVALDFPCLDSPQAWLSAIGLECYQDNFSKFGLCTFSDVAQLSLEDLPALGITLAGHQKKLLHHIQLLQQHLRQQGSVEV
T21 sequence (O15146 24-869): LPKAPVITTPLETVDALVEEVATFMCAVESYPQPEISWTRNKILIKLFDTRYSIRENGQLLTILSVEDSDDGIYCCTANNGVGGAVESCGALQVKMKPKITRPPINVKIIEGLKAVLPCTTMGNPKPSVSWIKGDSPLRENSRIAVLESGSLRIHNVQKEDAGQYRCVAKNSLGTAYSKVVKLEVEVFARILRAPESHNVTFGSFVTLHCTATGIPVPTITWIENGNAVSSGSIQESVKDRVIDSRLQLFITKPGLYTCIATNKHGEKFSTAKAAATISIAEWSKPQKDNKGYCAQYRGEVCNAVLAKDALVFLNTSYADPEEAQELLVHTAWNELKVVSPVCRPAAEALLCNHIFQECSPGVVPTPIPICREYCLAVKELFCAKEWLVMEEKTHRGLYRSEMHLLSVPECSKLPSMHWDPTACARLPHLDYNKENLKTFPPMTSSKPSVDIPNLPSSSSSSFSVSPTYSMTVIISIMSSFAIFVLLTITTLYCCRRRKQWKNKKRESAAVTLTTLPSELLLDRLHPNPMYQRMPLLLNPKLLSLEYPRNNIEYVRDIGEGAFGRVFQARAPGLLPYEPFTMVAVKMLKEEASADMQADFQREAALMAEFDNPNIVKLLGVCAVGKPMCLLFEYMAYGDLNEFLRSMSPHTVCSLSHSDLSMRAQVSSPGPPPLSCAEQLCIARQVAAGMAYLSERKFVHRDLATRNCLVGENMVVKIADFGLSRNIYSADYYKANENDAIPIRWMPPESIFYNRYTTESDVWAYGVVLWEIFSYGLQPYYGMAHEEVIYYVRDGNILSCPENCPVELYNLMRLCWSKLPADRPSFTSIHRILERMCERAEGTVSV

`N[C@H]1CC[C@H](Nc2cc(-c3cccc(NCc4cccc(F)c4)n3)c(Cl)cn2)CC1` [i-CDK9, N2′-(trans-4-aminocyclohexyl)-5′-chloro-N6-(3-fluorobenzyl)-2,4′-bipyridine-2′,6-diamine] was tested, and the “% Retention on Solid Support” value (DLK; 1 µM i-CDK9) was 100%, the “% Retention on Solid Support” value (DLK; 10 µM i-CDK9) was 71% and the remaining binding at 1 µM (CLK1; 1 µM i-CDK9) was 14%. It also gave a remaining binding at 10 µM (CLK1; 10 µM i-CDK9) of 0.55%, a remaining binding at 1 µM (ICK; 1 µM i-CDK9) of 85% and a remaining binding at 10 µM (ICK; 10 µM i-CDK9) of 3%. It also gave a remaining binding at 1 µM (MST1R; 1 µM i-CDK9) of 100%, a remaining binding at 10 µM (MST1R; 10 µM i-CDK9) of 100% and a remaining binding at 1 µM (TGFBR1; 1 µM i-CDK9) of 95%. The remaining binding at 10 µM (TGFBR1; 10 µM i-CDK9) was 100%, the remaining binding at 1 µM ([1]; 1 µM i-CDK9) was 45% and the remaining binding at 10 µM ([1]; 10 µM i-CDK9) was 97%. For the same compound, the remaining binding at 1 µM (MINK; 1 µM i-CDK9) was 100%, the remaining binding at 10 µM (MINK; 10 µM i-CDK9) was 65% and the “% Retention on Solid Support” value (CHEK1; 1 µM i-CDK9) was 100%. The “% Retention on Solid Support” value (CHEK1; 10 µM i-CDK9) was 82%, the remaining binding at 1 µM (SNRK) was 64% and the remaining binding at 1 µM (YANK3; 1 µM i-CDK9) was 89%. It also gave a remaining binding at 10 µM (YANK3; 10 µM i-CDK9) of 50%, a remaining binding at 1 µM (EPHB6; 1 µM i-CDK9) of 47% and a remaining binding at 10 µM (EPHB6; 10 µM i-CDK9) of 74%. It also gave a remaining binding at 1 µM (BMX; 1 µM i-CDK9) of 96%, a remaining binding at 10 µM (BMX; 10 µM i-CDK9) of 81% and a remaining binding at 1 µM (YSK4; 1 µM i-CDK9) of 100%. For the same compound, the remaining binding at 10 µM (YSK4; 10 µM i-CDK9) was 68%, the “% Retention on Solid Support” value (CDK3; 1 µM i-CDK9) was 57% and the “% Retention on Solid Support” value (CDK3; 10 µM i-CDK9) was 16%. For the same compound, the remaining binding at 1 µM (ZAP70; 1 µM i-CDK9) was 1.6%, the remaining binding at 10 µM (ZAP70; 10 µM i-CDK9) was 96% and the remaining binding at 1 µM (CSNK2A2; 1 µM i-CDK9) was 100%. It also gave a remaining binding at 10 µM (CSNK2A2; 10 µM i-CDK9) of 78%, a remaining binding at 1 µM (PLK1; 1 µM i-CDK9) of 100% and a remaining binding at 10 µM (PLK1; 10 µM i-CDK9) of 92%. It also gave a remaining binding at 1 µM (BMPR1B; 1 µM i-CDK9) of 100%, a remaining binding at 10 µM (BMPR1B; 10 µM i-CDK9) of 89% and a remaining binding at 1 µM (NEK7; 1 µM i-CDK9) of 100%. The remaining binding at 10 µM (NEK7; 10 µM i-CDK9) was 100%, the remaining binding at 1 µM (AXL; 1 µM i-CDK9) was 89% and the remaining binding at 10 µM (AXL; 10 µM i-CDK9) was 80%. For the same compound, the remaining binding at 1 µM (MUSK; 1 µM i-CDK9) was 88%, the remaining binding at 10 µM (MUSK; 10 µM i-CDK9) was 100% and the remaining binding at 1 µM (PFPK5(P.falciparum)) was 100%. For the same compound, the remaining binding at 1 µM (VEGFR2; 1 µM i-CDK9) was 83% and the remaining binding at 10 µM (VEGFR2; 10 µM i-CDK9) was 93%.
